PubChem BioAssay (NCI)
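Cultured in 96-well plates, cells were exposed to test compound for 48 hours across five concentrations. GI50 marks 50% less growth. TGI denotes the concentration required for complete inhibition of growth.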 Where a SMILES comes first, the peptide text is derived from it. [ ]: non-standard residue; d: D form. The star is where a group is joined. Decanoyl = CCCCCCCCCC(=O)*; Leu(ol) = CC(C)C[C@H](N)CO; Iva = CC[C@](C)(N)C(=O)O; Aib = CC(C)(N)C(=O)O

Legend:
Experiment in all cases: NCI anticancer screen, dose series, 48 h
[1] = test system: BT-549 breast
[2] = test system: OVCAR-4 ovarian
[3] = test system: IGROV1 ovarian
[4] = test system: SK-MEL-5 melanoma
[5] = test system: COLO 205 colon
[6] = test system: ACHN renal
[7] = test system: MALME-3M melanoma
[8] = test system: MDA-MB-435
[9] = test system: NCI-H226 lung
[10] = test system: SNB-75 CNS
[11] = test system: HS 578T breast
[12] = test system: UO-31 renal
[13] = test system: HCT-15 colon
[14] = test system: UACC-62 melanoma
[15] = test system: MDA-MB-231 breast
[16] = test system: M14 melanoma
[17] = test system: NCI-H23 lung
[18] = test system: EKVX NSCLC
[19] = test system: RXF 393 renal
[20] = test system: MOLT-4 leukemia
[21] = test system: SF-295 CNS
[22] = test system: HOP-62 NSCLC
[23] = test system: HL-60(TB) leukemia
[24] = test system: SK-MEL-28 melanoma
[25] = test system: OVCAR-8 ovarian
[26] = test system: A498 renal
[27] = test system: SK-MEL-2 melanoma
[28] = test system: SN12C renal
[29] = test system: T-47D breast
[30] = test system: HOP-92 NSCLC
[31] = test system: 786-0 renal
[32] = test system: HCC-2998 colon
[33] = test system: HT29 colon
[34] = test system: SF-539 CNS
[35] = test system: MCF7 breast
[36] = test system: OVCAR-5 ovarian
[37] = test system: K-562 leukemia
[38] = test system: SR leukemia
[39] = test system: SF-268 CNS
[40] = test system: UACC-257 melanoma
[41] = test system: KM12 colon
[42] = test system: SW-620 colon
[43] = test system: OVCAR-3 ovarian
[44] = test system: U251 CNS
[45] = test system: NCI-H522 lung
[46] = test system: HCT-116 colon
[47] = test system: CCRF-CEM leukemia
[48] = test system: TK-10 renal
[49] = test system: NCI-H460 lung
[50] = test system: SNB-19 CNS
[51] = test system: CAKI-1 renal
[52] = test system: LOX IMVI melanoma
[53] = test system: A549 NSCLC
[54] = test system: NCI/ADR-RES ovarian
[55] = test system: RPMI-8226 leukemia
[56] = test system: SK-OV-3 ovarian
[57] = test system: DU-145 prostate
[58] = test system: PC-3 prostate

Structure (SMILES): CCCCCCCCCC(=O)NC(C)(C)C(=O)N1CCC[C@H]1C(=O)N[C@@H](CC(C)C)C(=O)N[C@@](C)(CC)C(=O)N[C@@H](CCC(N)=O)C(=O)N[C@H](CCC(N)=O)C(=O)NC(C)(C)C(=O)NC(C)(C)C(=O)N[C@@H](CCC(N)=O)C(=O)N[C@H](CC(C)C)C(=O)N[C@H](CO)CC(C)C (Decanoyl-[Aib]PL[Iva]Q[dQ][Aib][Aib]Q[dL][Leu(ol)])
- GI50 [1]: 1.85 µM
- TGI [1]: 3.3 µM
- GI50 [2]: 2.05 µM
- TGI [2]: 4.63 µM
- GI50 [3]: 1.8 µM
- TGI [3]: 3.36 µM
- GI50 [4]: 1.74 µM
- TGI [4]: 3.17 µM
- GI50 [5]: 1.86 µM
- TGI [5]: 3.6 µM
- GI50 [6]: 1.86 µM
- TGI [6]: 3.6 µM
- GI50 [7]: 1.51 µM
- TGI [7]: 2.89 µM
- GI50 [8]: 1.75 µM
- TGI [8]: 3.16 µM
- GI50 [9]: 1.88 µM
- TGI [9]: 3.86 µM
- GI50 [10]: 1.46 µM
- TGI [10]: 2.79 µM
- GI50 [11]: 1.81 µM
- TGI [11]: 3.51 µM
- GI50 [12]: 1.6 µM
- TGI [12]: 2.95 µM
- GI50 [13]: 1.9 µM
- TGI [13]: 3.79 µM
- GI50 [14]: 1.63 µM
- TGI [14]: 2.98 µM
- GI50 [15]: 1.76 µM
- TGI [15]: 3.26 µM
- GI50 [16]: 1.77 µM
- TGI [16]: 3.29 µM
- GI50 [17]: 1.79 µM
- TGI [17]: 3.52 µM
- GI50 [18]: 1.7 µM
- TGI [18]: 3.17 µM
- GI50 [19]: 1.93 µM
- TGI [19]: 3.45 µM
- GI50 [20]: 2.29 µM
- TGI [20]: 5.9 µM
- GI50 [21]: 1.75 µM
- TGI [21]: 3.26 µM
- GI50 [22]: 1.95 µM
- TGI [22]: 3.8 µM
- GI50 [23]: 1.87 µM
- TGI [23]: 3.97 µM
- GI50 [24]: 1.69 µM
- TGI [24]: 3.06 µM
- GI50 [25]: 1.84 µM
- TGI [25]: 3.66 µM
- GI50 [26]: 1.98 µM
- TGI [26]: 3.55 µM
- GI50 [27]: 1.74 µM
- TGI [27]: 3.24 µM
- GI50 [28]: 1.7 µM
- TGI [28]: 3.17 µM
- GI50 [29]: 2.02 µM
- TGI [29]: 4.31 µM
- GI50 [30]: 1.64 µM
- TGI [30]: 3.14 µM
- GI50 [31]: 1.84 µM
- TGI [31]: 3.5 µM
- GI50 [32]: 1.8 µM
- TGI [32]: 3.39 µM
- GI50 [33]: 2.01 µM
- TGI [33]: 3.83 µM
- GI50 [34]: 1.72 µM
- TGI [34]: 3.11 µM
- GI50 [35]: 1.78 µM
- TGI [35]: 3.45 µM
- GI50 [36]: 1.7 µM
- TGI [36]: 3.07 µM
- GI50 [37]: 2.44 µM
- GI50 [38]: 2.25 µM
- GI50 [39]: 1.76 µM
- TGI [39]: 3.31 µM
- GI50 [40]: 1.75 µM
- TGI [40]: 3.24 µM
- GI50 [41]: 1.83 µM
- TGI [41]: 3.33 µM
- GI50 [42]: 1.86 µM
- TGI [42]: 3.46 µM
- GI50 [43]: 1.79 µM
- TGI [43]: 3.25 µM
- GI50 [44]: 1.72 µM
- TGI [44]: 3.22 µM
- GI50 [45]: 1.73 µM
- TGI [45]: 3.33 µM
- GI50 [46]: 1.85 µM
- TGI [46]: 3.49 µM
- GI50 [47]: 1.81 µM
- TGI [47]: 3.6 µM
- GI50 [48]: 1.78 µM
- TGI [48]: 3.26 µM
- GI50 [49]: 1.89 µM
- TGI [49]: 3.47 µM
- GI50 [50]: 1.7 µM
- TGI [50]: 3.1 µM
- GI50 [51]: 1.7 µM
- TGI [51]: 3.13 µM
- GI50 [52]: 1.73 µM
- TGI [52]: 3.29 µM
- GI50 [53]: 1.86 µM
- TGI [53]: 3.85 µM
- GI50 [54]: 1.83 µM
- TGI [54]: 3.55 µM
- GI50 [55]: 1.92 µM
- TGI [55]: 3.95 µM
- GI50 [56]: 1.93 µM
- TGI [56]: 3.8 µM
- GI50 [57]: 1.75 µM
- TGI [57]: 3.13 µM
- GI50 [58]: 1.71 µM
- TGI [58]: 3.3 µM
